Laboratory results from US20240254087A1, “SELECTIVE, PARTIAL, AND ARRESTIN-BIASED 5-HT2A AGONISTS WITH UTILITY IN VARIOUS DISORDERS” (Saint Joseph's University, priority 2021, published 2024).

Legend:
5-HT1A = molecular target: T1, 5-HT1A (Homo sapiens, UniProt P08908); assay: Competitive radioligand binding (NIMH PDSP)
T1 sequence (P08908 1-422): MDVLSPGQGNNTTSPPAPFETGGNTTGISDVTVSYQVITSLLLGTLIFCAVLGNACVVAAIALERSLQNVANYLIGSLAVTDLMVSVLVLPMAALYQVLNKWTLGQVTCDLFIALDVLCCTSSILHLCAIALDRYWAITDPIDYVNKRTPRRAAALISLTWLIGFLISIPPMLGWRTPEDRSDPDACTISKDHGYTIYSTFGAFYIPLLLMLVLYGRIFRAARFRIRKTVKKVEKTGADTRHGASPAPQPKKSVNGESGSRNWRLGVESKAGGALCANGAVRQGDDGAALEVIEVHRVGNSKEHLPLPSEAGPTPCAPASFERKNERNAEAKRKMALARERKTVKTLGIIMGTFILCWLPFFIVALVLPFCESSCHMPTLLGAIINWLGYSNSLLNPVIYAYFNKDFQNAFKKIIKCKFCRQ
Description: (§1) Method 1: Competitive binding experiments were performed by the National Institute of Mental Health Psychoactive Drug Screening Program (NIMH PDSP) using described methods or 5-HT2A experiments performed using [3H]-ketanserin displacement in human 5-HT2A expressing membranes. Target compounds were dissolved in DMSO and an initial screen performed to assess displacement of the radioligand from target receptors at a concentration of 10,000 nM. […] For the Ki experiments, compounds were always tested in triplicate on separate plates. Each plate also contained a known ligand for the receptor as a positive control.

5-HT2A [1] = molecular target: T2, 5-HT2A (Homo sapiens, UniProt P28223); assay: Competitive radioligand binding (NIMH PDSP)
T2 sequence (P28223 whole entry): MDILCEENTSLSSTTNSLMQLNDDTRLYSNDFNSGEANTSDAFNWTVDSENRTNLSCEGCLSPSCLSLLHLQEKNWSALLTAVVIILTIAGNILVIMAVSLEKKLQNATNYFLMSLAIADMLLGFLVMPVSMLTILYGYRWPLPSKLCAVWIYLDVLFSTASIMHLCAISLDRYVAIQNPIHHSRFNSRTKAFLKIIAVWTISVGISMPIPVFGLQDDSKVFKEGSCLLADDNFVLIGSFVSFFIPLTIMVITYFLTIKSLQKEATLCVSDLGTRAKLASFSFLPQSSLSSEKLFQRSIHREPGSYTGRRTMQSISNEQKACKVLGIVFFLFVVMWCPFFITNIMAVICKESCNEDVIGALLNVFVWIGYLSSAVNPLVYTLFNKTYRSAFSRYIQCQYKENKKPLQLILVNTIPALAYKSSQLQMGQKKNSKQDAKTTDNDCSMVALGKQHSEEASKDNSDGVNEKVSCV
Description: as §1

5-HT1B = 5-HT1B (Homo sapiens, UniProt P28222); assay: Competitive radioligand binding (NIMH PDSP)
Chain of 5-HT1B (P28222 whole entry, species assumed): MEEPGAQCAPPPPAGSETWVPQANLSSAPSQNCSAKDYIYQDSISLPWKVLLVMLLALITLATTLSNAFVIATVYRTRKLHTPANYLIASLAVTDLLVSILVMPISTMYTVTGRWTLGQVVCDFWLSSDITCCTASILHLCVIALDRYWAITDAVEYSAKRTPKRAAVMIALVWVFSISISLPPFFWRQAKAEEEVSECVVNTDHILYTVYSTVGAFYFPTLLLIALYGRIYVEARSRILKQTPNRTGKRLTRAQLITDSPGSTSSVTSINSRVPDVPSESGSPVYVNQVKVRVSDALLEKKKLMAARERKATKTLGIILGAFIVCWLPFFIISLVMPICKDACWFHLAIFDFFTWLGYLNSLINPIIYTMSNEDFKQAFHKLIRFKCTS
Description: as §1

5-HT3 = molecular target: T3, 5-HT3 (Homo sapiens, UniProt P46098); assay: Competitive radioligand binding (NIMH PDSP)
T3 sequence (P46098 24-478): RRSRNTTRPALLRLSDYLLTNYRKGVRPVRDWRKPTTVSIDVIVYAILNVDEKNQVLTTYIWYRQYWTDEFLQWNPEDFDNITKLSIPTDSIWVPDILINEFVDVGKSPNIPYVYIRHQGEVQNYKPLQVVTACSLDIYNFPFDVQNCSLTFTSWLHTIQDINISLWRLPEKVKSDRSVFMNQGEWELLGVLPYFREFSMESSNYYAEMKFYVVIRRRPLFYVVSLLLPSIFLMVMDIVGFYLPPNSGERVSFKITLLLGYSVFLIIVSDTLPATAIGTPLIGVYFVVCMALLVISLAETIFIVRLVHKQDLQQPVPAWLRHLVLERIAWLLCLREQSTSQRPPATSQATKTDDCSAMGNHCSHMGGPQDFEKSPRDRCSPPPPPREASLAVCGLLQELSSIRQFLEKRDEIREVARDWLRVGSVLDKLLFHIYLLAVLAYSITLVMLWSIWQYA
Description: as §1

5-HT1D = 5-HT1D (Homo sapiens, UniProt P28221); assay: Competitive radioligand binding (NIMH PDSP)
Chain of 5-HT1D (P28221 whole entry, species assumed): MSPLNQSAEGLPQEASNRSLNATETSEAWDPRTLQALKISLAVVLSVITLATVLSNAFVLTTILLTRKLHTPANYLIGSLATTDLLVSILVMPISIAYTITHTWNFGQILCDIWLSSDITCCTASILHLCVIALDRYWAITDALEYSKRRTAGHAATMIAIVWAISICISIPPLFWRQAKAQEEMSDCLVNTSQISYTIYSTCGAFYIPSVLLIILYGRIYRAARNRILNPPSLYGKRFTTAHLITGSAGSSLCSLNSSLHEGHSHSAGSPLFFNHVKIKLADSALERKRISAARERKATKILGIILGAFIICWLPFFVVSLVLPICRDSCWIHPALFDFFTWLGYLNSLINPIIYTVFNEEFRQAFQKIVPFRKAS
Description: as §1

5-HT1e = 5-HT1e (Homo sapiens, UniProt P28566); assay: Competitive radioligand binding (NIMH PDSP)
Chain of 5-HT1e (P28566 whole entry, species assumed): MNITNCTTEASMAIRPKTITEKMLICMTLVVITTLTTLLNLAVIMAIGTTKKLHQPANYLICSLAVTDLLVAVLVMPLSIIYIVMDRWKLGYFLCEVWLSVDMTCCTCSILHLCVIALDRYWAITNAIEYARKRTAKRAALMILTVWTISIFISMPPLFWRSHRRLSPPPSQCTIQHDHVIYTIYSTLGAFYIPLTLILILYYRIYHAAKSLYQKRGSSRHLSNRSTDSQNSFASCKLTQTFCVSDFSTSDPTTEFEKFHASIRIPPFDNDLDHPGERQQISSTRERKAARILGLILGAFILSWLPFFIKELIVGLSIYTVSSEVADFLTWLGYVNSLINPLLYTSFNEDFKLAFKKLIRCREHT
Description: as §1

5-HT2B [2] = molecular target: T4, 5-HT2B (Homo sapiens, UniProt P41595); assay: Ca2+ flux assay, 5-HT2B; type: cell-based; parameters: expressed in transfected cells; details: for 5-HT2B EC50, nM / Emax: Ca2+ flux; for Emax: read-out: 5-HT2B Emax % 5-HT
T4 sequence (P41595 whole entry): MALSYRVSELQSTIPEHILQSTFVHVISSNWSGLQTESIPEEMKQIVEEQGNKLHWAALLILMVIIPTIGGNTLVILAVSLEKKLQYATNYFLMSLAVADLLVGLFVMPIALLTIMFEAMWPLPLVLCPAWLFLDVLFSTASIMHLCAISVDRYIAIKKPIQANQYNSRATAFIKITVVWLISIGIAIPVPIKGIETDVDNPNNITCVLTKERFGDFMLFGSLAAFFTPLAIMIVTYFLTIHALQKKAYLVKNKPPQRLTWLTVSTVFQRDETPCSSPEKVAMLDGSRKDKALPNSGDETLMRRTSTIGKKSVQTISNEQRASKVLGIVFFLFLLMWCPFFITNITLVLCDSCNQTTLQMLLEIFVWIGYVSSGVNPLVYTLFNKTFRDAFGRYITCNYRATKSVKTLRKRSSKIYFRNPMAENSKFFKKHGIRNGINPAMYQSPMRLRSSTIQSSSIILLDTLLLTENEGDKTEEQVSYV

5-HT2C [3] = molecular target: T5, 5-HT2C (Homo sapiens, UniProt P28335); assay: Ca2+ flux assay, 5-HT2C; type: cell-based; parameters: expressed in transfected cells; details: for EC50: 5-HT2C EC50, nM; for Emax: read-out: 5-HT2C Emax % 5-HT
T5 sequence (P28335 33-458): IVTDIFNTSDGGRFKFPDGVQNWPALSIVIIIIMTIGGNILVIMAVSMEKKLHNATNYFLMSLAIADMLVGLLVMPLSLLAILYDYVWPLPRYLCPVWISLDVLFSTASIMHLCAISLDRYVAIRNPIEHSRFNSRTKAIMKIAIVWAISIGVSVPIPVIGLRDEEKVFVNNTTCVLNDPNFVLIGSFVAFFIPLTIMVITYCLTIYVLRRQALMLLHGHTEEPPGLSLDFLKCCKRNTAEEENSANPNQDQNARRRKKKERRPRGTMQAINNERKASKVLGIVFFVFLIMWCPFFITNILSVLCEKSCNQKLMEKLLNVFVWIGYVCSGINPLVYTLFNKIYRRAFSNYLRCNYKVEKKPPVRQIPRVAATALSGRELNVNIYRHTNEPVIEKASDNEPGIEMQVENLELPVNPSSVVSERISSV

5-HT2A [4] = assay: Ca2+ flux assay, 5-HT2A; type: cell-based, human; details: Gq/11 Ca2+ mobilization; higher number = skewed towards 5-HT2A
5-HT2B [5] = molecular target: T4, 5-HT2B; assay: Competitive radioligand binding (NIMH PDSP); parameters: expressed in transfected cells
Description: as §1

5-HT2C [6] = molecular target: T5, 5-HT2C; assay: Competitive radioligand binding (NIMH PDSP); parameters: expressed in transfected cells
Description: as §1

5-HT2A [7] = molecular target: T2, 5-HT2A; assay: Ca2+ flux assay, 5-HT2A; type: cell-based; parameters: expressed in transfected cells; details: for Emax: read-out: 5-HT2A Emax % 5-HT, Ca2+ flux

## COc1cc([N+](=O)[O-])c(OC)cc1CCNCc1cccc(C)c1 [25N-NB-3-Me (22), [2-(2,5-dimethoxy-4-nitrophenyl)ethyl][(3-methylphenyl)methyl]amine]
5-HT1A
  Ki: 1.78 µM
5-HT2A [1]
  Ki: 0.000209 µM
5-HT1B
  Ki: > 10 µM
5-HT3
  Ki: > 10 µM
5-HT1D
  Ki: 0.933 µM
5-HT1e
  Ki: > 10 µM
5-HT2B [2]
  5-HT2B EC50, nM: No activity
  Emax: < 10%
5-HT2C [3]
  EC50: 14.3 nM
  Emax: 15 ± 2%
5-HT2A [4]
  5-HT2A/5-HT2c Selectivity Factor ΔLog(Emax/EC50): 29.1
5-HT2B [5]
  Ki: 0.00288 µM
5-HT2C [6]
  Ki: 0.0398 µM
5-HT2A [7]; 5-HT2A EC50, nM, Ca2+ flux
  EC50: 2.27 nM
5-HT2A [7]
  Emax: 54 ± 1%

## COc1cc([N+](=O)[O-])c(OC)cc1CCN [2C-N (1), 2-(2,5-dimethoxy-4-nitrophenyl)ethan-1-amine, reference compound]
5-HT1A
  Ki: 1.45 µM
5-HT2A [1]
  Ki: 0.0724 µM
5-HT1B
  Ki: > 10 µM
5-HT3
  Ki: > 10 µM
5-HT1D
  Ki: 0.832 µM
5-HT1e
  Ki: 0.676 µM
5-HT2B [2]
  EC50: 0.0503 µM
  Emax: 72 ± 3%
5-HT2C [3]
  EC50: 60.1 nM
  Emax: 69 ± 2%
5-HT2A [4]
  5-HT2A/5-HT2c Selectivity Factor ΔLog(Emax/EC50): 19.1
5-HT2B [5]
  Ki: 0.123 µM
5-HT2C [6]
  Ki: 0.162 µM
5-HT2A [7]; 5-HT2A (pEC50 ± SEM), Ca2+ flux
  EC50: 4.9 nM
5-HT2A [7]; 5-HT2A EC50, nM, Ca2+ flux
  EC50: 4.56 nM
5-HT2A [7]
  Emax: 100 ± 1%

## COc1cc([N+](=O)[O-])c(OC)cc1CCNCc1ccccc1-c1ccccc1 [25N-NBPh (17), ({[1,1′-biphenyl]-2-yl}methyl)[2-(2,5-dimethoxy-4-nitrophenyl)ethyl]amine]
5-HT1A
  Ki: 1.78 µM
5-HT2A [1]
  Ki: 0.000331 µM
5-HT1B
  Ki: > 10 µM
5-HT3
  Ki: > 10 µM
5-HT1D
  Ki: 1.2 µM
5-HT1e
  Ki: > 10 µM
5-HT2B [2]
  5-HT2B EC50, nM: No activity
  Emax: < 10%
5-HT2C [3]
  5-HT2C EC50, nM: No activity
  Emax: < 10%
5-HT2A [4]
  5-HT2A/5-HT2c Selectivity Factor ΔLog(Emax/EC50): 5-HT2A Selective
5-HT2B [5]
  Ki: 1.41 µM
5-HT2C [6]
  Ki: 0.372 µM
5-HT2A [7]; Ca2+ flux
  5-HT2A EC50, nM: No activity
5-HT2A [7]
  Emax: < 10%

## COc1cc([N+](=O)[O-])c(OC)cc1CCNCc1cccc(C)c1O [25N-NB-2-OH-3-Me (18), 2-({[2-(2,5-dimethoxy-4-nitrophenyl)ethyl]amino}methyl)-6-methylphenol]
5-HT1A
  Ki: 0.186 µM
5-HT2A [1]
  Ki: 0.000479 µM
5-HT1B
  Ki: > 10 µM
5-HT3
  Ki: > 10 µM
5-HT1D
  Ki: 1.29 µM
5-HT1e
  Ki: > 10 µM
5-HT2B [2]
  5-HT2B EC50, nM: No activity
  Emax: < 10%
5-HT2C [3]
  5-HT2C EC50, nM: No activity
  Emax: < 10%
5-HT2A [4]
  5-HT2A/5-HT2c Selectivity Factor ΔLog(Emax/EC50): 5-HT2A Selective
5-HT2B [5]
  Ki: 0.000776 µM
5-HT2C [6]
  Ki: 0.00288 µM
5-HT2A [7]; 5-HT2A EC50, nM, Ca2+ flux
  EC50: 1.58 nM
5-HT2A [7]
  Emax: 55 ± 2%

## COc1cc([N+](=O)[O-])c(OC)cc1CCNCc1ccccc1[N+](=O)[O-] [25N-NBNO2 (15), [2-(2,5-dimethoxy-4-nitrophenyl)ethyl][(2-nitrophenyl)methyl]amine]
5-HT1A
  Ki: 1.95 µM
5-HT2A [1]
  Ki: 0.0813 µM
5-HT1B
  Ki: > 10 µM
5-HT3
  Ki: > 10 µM
5-HT1D
  Ki: > 10 µM
5-HT1e
  Ki: > 10 µM
5-HT2B [2]
  5-HT2B EC50, nM: No activity
  Emax: < 10%
5-HT2C [3]
  EC50: 583 nM
  Emax: 36 ± 2%
5-HT2A [4]
  5-HT2A/5-HT2c Selectivity Factor ΔLog(Emax/EC50): 66.8
5-HT2B [5]
  Ki: 0.191 µM
5-HT2C [6]
  Ki: 0.282 µM
5-HT2A [7]; 5-HT2A EC50, nM, Ca2+ flux
  EC50: 15.6 nM
5-HT2A [7]; Ca2+ flux
  5-HT2A Emax % 5-HT: 64 ± 2 % 5-HT
5-HT2A [7]
  Emax: ≤ 77%
